Reference: US7635561B2, “Methods of diagnosing, prognosing and treating breast cancer” (Temple University of the Commonwealth System of Higher …, priority 2003, dated 2009)

Assays:
Format in all cases: cell-based
[1] = system: pRb2/p130-multimolecular complex on ER-α promoter in MDA-MB-231 cells; assay: XChIP analysis of recruitment of pRb2/p130-multimolecular complex to the ER-α promoter in 5-Aza-2dC treated MDA-MB-231 cells; details: 72 hours treatment, complex contained pRb2/p130, E2F4, SUV39H1, p300, HDAC1
Description: Soluble chromatin was immunoprecipitated with specific antibodies recognizing pRb2/p130, E2F4, HDAC1, SUV39H1, DNMT1, and p300. The presence of ER-α promoter sequences in the immunoprecipitates was tested by PCR using specific primers spanning ER-α promoter.
Chromatin immunoprecipitations were performed using a modified procedure of previously published methods (see Orlando et al., 1997, Methods and 11, 205; Keller et al., 2002, J. Biol. Chem., 277, 31430, the entire disclosures of which are herein incorporated by reference), in combination with Western blot and PCR techniques. Approximately 1×10^6 MCF-7 and MDA-MB-231 cells were cross-linked by adding formaldehyde (1% final concentration) directly to the culture medium, and incubating the cells for 8 minutes at 37° C.
After removal of the medium, cells were washed three times on plates with cold phosphate-buffered saline (PBS) containing protease inhibitors (1 mM phenylmethyl-sulfonyl fluoride, 1 μg/ml aprotinin and 1 μg/ml pepstatin A), scraped, and washed again twice in cold PBS. […]
The recruitment of pRb2/p130-multimolecular complexes to ER-α promoter was analyzed in MCF-7 and MDA-MB-231 cells by XChIP. […]

[2] = system: pRb2/p130-multimolecular complex on ER-α promoter in MCF-7 cells; assay: XChIP analysis of recruitment of pRb2/p130-multimolecular complex to the ER-α promoter in 5-Aza-2dC treated MCF-7 cells; details: 72 hours treatment
Description: After removal of the medium, cells were washed three times on plates with cold phosphate-buffered saline (PBS) containing protease inhibitors (1 mM phenylmethyl-sulfonyl fluoride, 1 μg/ml aprotinin and 1 μg/ml pepstatin A), scraped, and washed again twice in cold PBS. The cell pellet was resuspended in SDS lysis buffer (1% SDS, 10 mM EDTA, 50 mM Tris-HCl, pH 8.1), incubated for 10 minutes on ice, sonicated to shear DNA to lengths between 300 and 500 bp, and centrifuged for 10 minutes at 13,000 rpm at 4° C. Sonicated cell supernatant was diluted in ChIP dilution buffer (0.01% SDS, 1.1% Triton X-100, 1.2 mM EDTA, 16.7 mM Tris-HCL, pH 8.1, 167 mM NaCL), and pre-cleared twice with salmon sperm DNA/protein A agarose at 4° C. for 2 hours. The agarose was pelleted and the supernatant fraction was collected and incubated overnight at 4° C. with the immunoprecipitating antibody.
As negative controls, a “no-antibody” immunoprecipitation was performed by incubating the supernatant fraction with salmon sperm DNA/protein A agarose, and immunoprecipitating the mixture with an irrelevant antibody. […]

ER-α in MDA-MB-231 cells = assay: Effect of 5-Aza-2dC on ER-α RNA (RT-PCR) and protein (Western blot) expression in MDA-MB-231 cells
Description: The expression of β-actin protein in each sample was assessed to normalize protein loading.
The breast carcinoma cell lines, MCF-7 (estrogen receptor-positive), MDA-MB-231 (estrogen receptor-negative) and the normal mammary epithelial cell line MCF-12A, were obtained from ATCC (Rockville, Md.) and were cultured according to the manufacturer's protocols. The breast primary tumors were selected on the basis of estrogen receptor status.
Control cells were left untreated. Total RNA was isolated from the treated and control cells, and ER-α RNA was detected by reverse-transcription polymerase chain reaction (RT-PCR). P-actin RNA expression was also determined by RT-PCR in total RNA isolated from treatment and control cells to normalize RNA loading. […] The expression of β-actin protein was assessed to normalize protein loading.

`Nc1ncn([C@H]2C[C@H](O)[C@@H](CO)O2)c(=O)n1` [5-Aza-2dC, 5-Aza-2′-deoxycytidine] was tested, and the “composition of pRb2/p130-multimolecular complex recruited to ER-α promoter” value [1] was “did not contain DNMT1”, the “composition of pRb2/p130-multimolecular complex recruited onto ER-α promoter” value [2] was “did not influence the composition” and the “time of maximal ER-α RNA expression” value (ER-α in MDA-MB-231 cells; MDA-MB-231 cells treated with 5-Aza-2dC) was 72 h. The “expression of ER-α RNA” value (ER-α in MDA-MB-231 cells; MDA-MB-231 cells, 2.5 μM, 24-96 hours, RT-PCR, especially evident at 48-96 h) was “significantly enhanced” and the “expression of ER-α protein” value (ER-α in MDA-MB-231 cells; MDA-MB-231 cells, 2.5 μM, 24-96 hours, Western blot, especially evident at 48-96 h) was “significantly enhanced”.
